In PubChem BioAssay (NCI):
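Five concentrations, 48 hours, 96-well plates. At the GI50, growth is halved. TGI is the concentration that stops growth completely.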

What was measured:
Assay in all cases: NCI-60 cell line screen, 48 h
RPMI-8226 leukemia = system: RPMI-8226 leukemia
M14 melanoma = system: M14 melanoma
HS 578T breast = system: HS 578T breast
SF-539 CNS = system: SF-539 CNS
IGROV1 ovarian = system: IGROV1 ovarian
MALME-3M melanoma = system: MALME-3M melanoma
786-0 renal = system: 786-0 renal
OVCAR-5 ovarian = system: OVCAR-5 ovarian
COLO 205 colon = system: COLO 205 colon
NCI-H226 lung = system: NCI-H226 lung
SNB-75 CNS = system: SNB-75 CNS
K-562 leukemia = system: K-562 leukemia
BT-549 breast = system: BT-549 breast
OVCAR-4 ovarian = system: OVCAR-4 ovarian
UACC-257 melanoma = system: UACC-257 melanoma
NCI/ADR-RES ovarian = system: NCI/ADR-RES ovarian
TK-10 renal = system: TK-10 renal
SF-295 CNS = system: SF-295 CNS
SK-MEL-28 melanoma = system: SK-MEL-28 melanoma
PC-3 prostate = system: PC-3 prostate
DU-145 prostate = system: DU-145 prostate
T-47D breast = system: T-47D breast
UACC-62 melanoma = system: UACC-62 melanoma
HOP-62 NSCLC = system: HOP-62 NSCLC
SF-268 CNS = system: SF-268 CNS
MCF7 breast = system: MCF7 breast
HOP-92 NSCLC = system: HOP-92 NSCLC

CC(=O)Oc1cc(C(C)C)c(OCCN(C)C)cc1C
TGI (RPMI-8226 leukemia): > 100 µM | GI50 (M14 melanoma): > 100 µM | TGI (M14 melanoma): > 100 µM | GI50 (HS 578T breast): > 100 µM | TGI (HS 578T breast): > 100 µM | GI50 (SF-539 CNS): > 100 µM | TGI (SF-539 CNS): > 100 µM | GI50 (IGROV1 ovarian): > 100 µM | TGI (IGROV1 ovarian): > 100 µM | GI50 (MALME-3M melanoma): > 100 µM | TGI (MALME-3M melanoma): > 100 µM | GI50 (786-0 renal): > 100 µM | TGI (786-0 renal): > 100 µM | GI50 (OVCAR-5 ovarian): > 100 µM | TGI (OVCAR-5 ovarian): > 100 µM | GI50 (COLO 205 colon): > 100 µM | TGI (COLO 205 colon): > 100 µM | GI50 (NCI-H226 lung): > 100 µM | TGI (NCI-H226 lung): > 100 µM | GI50 (SNB-75 CNS): 50.9 µM | TGI (SNB-75 CNS): > 100 µM | GI50 (K-562 leukemia): > 100 µM | TGI (K-562 leukemia): > 100 µM | GI50 (BT-549 breast): > 100 µM | TGI (BT-549 breast): > 100 µM | GI50 (OVCAR-4 ovarian): > 100 µM | TGI (OVCAR-4 ovarian): > 100 µM | GI50 (UACC-257 melanoma): > 100 µM | TGI (UACC-257 melanoma): > 100 µM | GI50 (NCI/ADR-RES ovarian): > 100 µM | TGI (NCI/ADR-RES ovarian): > 100 µM | GI50 (TK-10 renal): > 100 µM | TGI (TK-10 renal): > 100 µM | GI50 (SF-295 CNS): > 100 µM | TGI (SF-295 CNS): > 100 µM | GI50 (SK-MEL-28 melanoma): > 100 µM | TGI (SK-MEL-28 melanoma): > 100 µM | GI50 (PC-3 prostate): > 100 µM | TGI (PC-3 prostate): > 100 µM | GI50 (DU-145 prostate): > 100 µM | TGI (DU-145 prostate): > 100 µM | GI50 (T-47D breast): > 100 µM | TGI (T-47D breast): > 100 µM | GI50 (UACC-62 melanoma): > 100 µM | TGI (UACC-62 melanoma): > 100 µM | GI50 (HOP-62 NSCLC): > 100 µM | TGI (HOP-62 NSCLC): > 100 µM | GI50 (SF-268 CNS): > 100 µM | TGI (SF-268 CNS): > 100 µM | GI50 (MCF7 breast): > 100 µM | TGI (MCF7 breast): > 100 µM | GI50 (HOP-92 NSCLC): > 100 µM | TGI (HOP-92 NSCLC): > 100 µM
